From the NIST ThermoML archive (doi:10.1021/acs.jced.7b00347)
± gives the expanded uncertainty stated by the source.

Test: mn = molality of the nth substance listed, in mol/kg
Details: for surface tension liquid-gas: Ring tensiometer; for electrical conductivity: 100 kPa, Liquid, Alternating current cell with electrodes

CCCCCCCCCCCCCCCC[NH+](CCO)CC(C)O.[Cl-] (configuration not stated) + O
Details	electrical conductivity [S/m]	surface tension liquid-gas [mN/m]
293.15 K, m1 = 1.052e-05	–	59.82 ± 0.78
293.15 K, m1 = 1.579e-05	–	56.69 ± 0.74
293.15 K, m1 = 2.631e-05	–	52.01 ± 0.68
293.15 K, m1 = 5.263e-05	–	45.56 ± 0.61
293.15 K, m1 = 0.0001052	–	39.23 ± 0.54
293.15 K, m1 = 0.0001263	0.000446 ± 2.5e-05	–
293.15 K, m1 = 0.0001316	0.000471 ± 2.6e-05	–
293.15 K, m1 = 0.0001368	0.000496 ± 2.8e-05	–
293.15 K, m1 = 0.0001421	0.000522 ± 2.9e-05	–
293.15 K, m1 = 0.0001473	0.000548 ± 3.1e-05	–
293.15 K, m1 = 0.0001526	0.000573 ± 3.2e-05	–
293.15 K, m1 = 0.0001579	0.000595 ± 3.4e-05	35.88 ± 0.5
293.15 K, m1 = 0.000171	0.00061 ± 3.5e-05	–
293.15 K, m1 = 0.0001842	0.000621 ± 3.5e-05	–
293.15 K, m1 = 0.0001973	0.000633 ± 3.6e-05	–
293.15 K, m1 = 0.0002105	0.000644 ± 3.7e-05	34.88 ± 0.49
293.15 K, m1 = 0.0002236	0.000655 ± 3.7e-05	–
293.15 K, m1 = 0.0002368	0.000667 ± 3.8e-05	–
293.15 K, m1 = 0.00025	0.000678 ± 3.9e-05	–
293.15 K, m1 = 0.0002631	0.000689 ± 4e-05	34.06 ± 0.48
293.15 K, m1 = 0.0002763	0.000701 ± 4e-05	–
293.15 K, m1 = 0.0002894	0.000712 ± 4.1e-05	–
293.15 K, m1 = 0.0003026	0.000723 ± 4.2e-05	–
293.15 K, m1 = 0.0003157	0.000737 ± 4.3e-05	–
293.15 K, m1 = 0.0005262	–	32.43 ± 0.46
293.15 K, m1 = 0.001053	–	31.43 ± 0.45
293.15 K, m1 = 0.001579	–	31.07 ± 0.45
298.15 K, m1 = 7.893e-06	–	56.32 ± 0.73
298.15 K, m1 = 1.052e-05	–	54.11 ± 0.71
298.15 K, m1 = 1.579e-05	–	50.72 ± 0.67
298.15 K, m1 = 2.631e-05	–	46.33 ± 0.62
298.15 K, m1 = 5.263e-05	–	40.82 ± 0.55
298.15 K, m1 = 9.47e-05	0.000409 ± 2.3e-05	–
298.15 K, m1 = 0.0001016	0.000433 ± 2.4e-05	–
298.15 K, m1 = 0.0001052	–	35.11 ± 0.49
298.15 K, m1 = 0.0001085	0.000458 ± 2.5e-05	–
298.15 K, m1 = 0.0001154	0.000482 ± 2.7e-05	–
298.15 K, m1 = 0.0001223	0.000507 ± 2.8e-05	–
298.15 K, m1 = 0.0001293	0.000531 ± 2.9e-05	–
298.15 K, m1 = 0.0001362	0.000556 ± 3.1e-05	–
298.15 K, m1 = 0.0001431	0.000581 ± 3.2e-05	–
298.15 K, m1 = 0.00015	0.000606 ± 3.3e-05	32.52 ± 0.46
298.15 K, m1 = 0.0001618	0.000621 ± 3.4e-05	–
298.15 K, m1 = 0.0001737	0.000637 ± 3.5e-05	–
298.15 K, m1 = 0.0001855	0.000653 ± 3.6e-05	–
298.15 K, m1 = 0.0001973	0.000669 ± 3.7e-05	–
298.15 K, m1 = 0.0002092	0.000684 ± 3.8e-05	–
298.15 K, m1 = 0.0002105	–	31.91 ± 0.46
298.15 K, m1 = 0.000221	0.0007 ± 3.9e-05	–
298.15 K, m1 = 0.0002329	0.000716 ± 3.9e-05	–
298.15 K, m1 = 0.0002447	0.000732 ± 4e-05	–
298.15 K, m1 = 0.0002565	0.000748 ± 4.1e-05	–
298.15 K, m1 = 0.0002631	–	31.41 ± 0.45
298.15 K, m1 = 0.0002684	0.000764 ± 4.2e-05	–
298.15 K, m1 = 0.0002802	0.00078 ± 4.3e-05	–
298.15 K, m1 = 0.0002921	0.000796 ± 4.4e-05	–
298.15 K, m1 = 0.0003039	0.000811 ± 4.5e-05	–
298.15 K, m1 = 0.0003157	0.000829 ± 4.6e-05	–
298.15 K, m1 = 0.0005262	–	30.8 ± 0.45
298.15 K, m1 = 0.001053	–	30.03 ± 0.44
298.15 K, m1 = 0.001579	–	29.71 ± 0.44
303.15 K, m1 = 6.578e-06	–	52.23 ± 0.69
303.15 K, m1 = 7.893e-06	–	50.81 ± 0.67
303.15 K, m1 = 1.052e-05	–	48.55 ± 0.64
303.15 K, m1 = 1.579e-05	–	45.89 ± 0.61
303.15 K, m1 = 2.631e-05	–	42.23 ± 0.57
303.15 K, m1 = 5.263e-05	–	37.06 ± 0.51
303.15 K, m1 = 9.47e-05	0.000467 ± 2.6e-05	–
303.15 K, m1 = 9.9e-05	0.000486 ± 2.7e-05	–
303.15 K, m1 = 0.0001033	0.000505 ± 2.8e-05	–
303.15 K, m1 = 0.0001052	–	32.07 ± 0.46
303.15 K, m1 = 0.0001075	0.000524 ± 2.9e-05	–
303.15 K, m1 = 0.0001118	0.000544 ± 3e-05	–
303.15 K, m1 = 0.0001161	0.000563 ± 3.1e-05	–
303.15 K, m1 = 0.0001204	0.000582 ± 3.2e-05	–
303.15 K, m1 = 0.0001247	0.000601 ± 3.3e-05	–
303.15 K, m1 = 0.0001289	0.000621 ± 3.4e-05	–
303.15 K, m1 = 0.0001315	–	31.01 ± 0.45
303.15 K, m1 = 0.0001423	0.000643 ± 3.5e-05	–
303.15 K, m1 = 0.0001556	0.000666 ± 3.7e-05	–
303.15 K, m1 = 0.0001579	–	30.51 ± 0.44
303.15 K, m1 = 0.000169	0.000689 ± 3.8e-05	–
303.15 K, m1 = 0.0001823	0.000712 ± 3.9e-05	–
303.15 K, m1 = 0.0001956	0.000735 ± 4e-05	–
303.15 K, m1 = 0.000209	0.000757 ± 4.2e-05	–
303.15 K, m1 = 0.0002105	–	30.45 ± 0.44
303.15 K, m1 = 0.0002223	0.00078 ± 4.3e-05	–
303.15 K, m1 = 0.0002357	0.000803 ± 4.4e-05	–
303.15 K, m1 = 0.000249	0.000826 ± 4.5e-05	–
303.15 K, m1 = 0.0002624	0.000849 ± 4.7e-05	–
303.15 K, m1 = 0.0002631	–	30.43 ± 0.44
303.15 K, m1 = 0.0002757	0.000872 ± 4.8e-05	–
303.15 K, m1 = 0.0002891	0.000895 ± 4.9e-05	–
303.15 K, m1 = 0.0003024	0.000918 ± 5.1e-05	–
303.15 K, m1 = 0.0003157	0.000944 ± 5.2e-05	–
303.15 K, m1 = 0.0005262	–	29.89 ± 0.44
303.15 K, m1 = 0.001053	–	29.16 ± 0.43
303.15 K, m1 = 0.001579	–	28.81 ± 0.43
308.15 K, m1 = 4.604e-06	–	52.01 ± 0.68
308.15 K, m1 = 7.893e-06	–	48.13 ± 0.64
308.15 K, m1 = 1.052e-05	–	46 ± 0.61
308.15 K, m1 = 1.579e-05	–	43.23 ± 0.58
308.15 K, m1 = 2.631e-05	–	39.78 ± 0.54
308.15 K, m1 = 5.263e-05	–	35.06 ± 0.49
308.15 K, m1 = 7.37e-05	0.000445 ± 2.4e-05	–
308.15 K, m1 = 8.04e-05	0.000472 ± 2.6e-05	–
308.15 K, m1 = 8.72e-05	0.0005 ± 2.8e-05	–
308.15 K, m1 = 9.4e-05	0.000528 ± 2.9e-05	–
308.15 K, m1 = 0.0001007	0.000556 ± 3.1e-05	–
308.15 K, m1 = 0.0001075	0.000583 ± 3.2e-05	–
308.15 K, m1 = 0.0001143	0.000611 ± 3.4e-05	–
308.15 K, m1 = 0.000121	0.00064 ± 3.6e-05	29.71 ± 0.44
308.15 K, m1 = 0.00013	0.000659 ± 3.7e-05	–
308.15 K, m1 = 0.0001389	0.000679 ± 3.8e-05	–
308.15 K, m1 = 0.0001479	0.000699 ± 4e-05	–
308.15 K, m1 = 0.0001568	0.000719 ± 4.1e-05	–
308.15 K, m1 = 0.0001579	–	29.44 ± 0.43
308.15 K, m1 = 0.0001658	0.000739 ± 4.2e-05	–
308.15 K, m1 = 0.0001747	0.000759 ± 4.3e-05	–
308.15 K, m1 = 0.0001837	0.000778 ± 4.5e-05	–
308.15 K, m1 = 0.0001926	0.000798 ± 4.6e-05	–
308.15 K, m1 = 0.0002015	0.000818 ± 4.7e-05	–
308.15 K, m1 = 0.0002105	0.000839 ± 4.8e-05	29.16 ± 0.43
308.15 K, m1 = 0.0002194	0.000858 ± 5e-05	–
308.15 K, m1 = 0.0002284	0.000878 ± 5.1e-05	–
308.15 K, m1 = 0.0002373	0.000898 ± 5.2e-05	–
308.15 K, m1 = 0.0002463	0.000917 ± 5.4e-05	–
308.15 K, m1 = 0.0002552	0.000937 ± 5.5e-05	–
308.15 K, m1 = 0.0002631	–	29.02 ± 0.43
308.15 K, m1 = 0.0002642	0.000957 ± 5.6e-05	–
308.15 K, m1 = 0.0002731	0.000977 ± 5.7e-05	–
308.15 K, m1 = 0.0002821	0.000997 ± 5.9e-05	–
308.15 K, m1 = 0.000291	0.00102 ± 6e-05	–
308.15 K, m1 = 0.0005262	–	28.71 ± 0.43
308.15 K, m1 = 0.001053	–	28.26 ± 0.42
308.15 K, m1 = 0.001579	–	28.07 ± 0.42
